Measurements published in paper PMC7822874, “Chemoprotective antimalarials identified through quantitative high-throughput screening of Plasmodium blood and liver stage parasites” (Scientific Reports, 2021).
Values joined by “and” are separate entries in the source; they are usually repeats but may differ in a detail not shown here. Identical values can stand only once.

Experiments:
[1] = system: T1, Plasmodium falciparum Dd2-attB-ScDHODH (transgenic line expressing yeast DHODH), asexual blood stages; test: organism not typed; parameters: replicate k of 3 (each line is one of three independent assays; the three lines of one compound and parasite line follow each other)
T1 construct: Dd2-attB-ScDHODH, the transgenic line that expresses yeast DHODH
Protocol: (§1) The overexpression of the fumarate-dependent yeast DHODH confers resistance to compounds that inhibit the parasite mETC, or the parasite DHODH enzyme that depends on ubiquinone provided by the parasite mETC. Assays were performed in three independent assays on a subset of compounds, and differences between the Dd2-attB parental line and the ScDHODH transgenic line were analyzed using two-sided Student’s t-tests.

[2] = system: T2, Plasmodium falciparum Dd2-attB (parental line), asexual blood stages; test: microbe, parasite or virus in culture; parameters: replicate k of 3 (each line is one of three independent assays; the three lines of one compound and parasite line follow each other); details: n = 1; for Individual replicates / Log AC50 (M): 72 h; for AC50: Plasmodium falciparum, DD2, 72 h, read-out: Individual replicates / Log AC50 (converted)
T2 construct: Dd2-attB, the isogenic parental line
Protocol: as §1

[3] = 72 h; n = 1; read-out: Individual replicates / Log AC50 (converted)

| Structure (SMILES) | Individual replicates / Log AC50 (M) ([1]; 72 h; n = 1) | AC50 [1, 3] [µM] | Individual replicates / Log AC50 (M) [2] | AC50 [2] [µM] | Individual replicates / Log AC50 (M) ([1]; 72 h, n = 1) |
| --- | --- | --- | --- | --- | --- |
| Cn1cnc(-c2nccc3c(O)nc(OCCCC(F)(F)F)nc23)c1 [NCGC00381768-01] | -4.7486 Log AC50 (M) | 17.8 | -4.7486 Log AC50 (M) and -4.7986 Log AC50 (M) | 15.9 | – |
| COC(=O)c1ccnc2sc(N(CCCN3CCCCC3)c3ccccc3Cl)nc12 [NCGC00480953-01] | – | 4.48 | -5.2486 Log AC50 (M) and -5.3486 Log AC50 (M) | 4.48 | -5.0986 Log AC50 (M) |
| Oc1cc(-c2ccc(CN3CCOCC3)c(F)c2)cc2cccnc12 [NCGC00247756-01] | – | 5.03 | -5.2986 Log AC50 (M) | 5.03 | -5.2986 Log AC50 (M) and -5.2486 Log AC50 (M) |
| COc1ccc(NC2=C(c3ccc(C(F)(F)F)cc3)C(=O)c3ccccc32)cc1 [NCGC00107310-02] | – | – | -6.3986 Log AC50 (M) and -6.2986 Log AC50 (M) and -6.5486 Log AC50 (M) | – | -5.1486 Log AC50 (M) and -5.2986 Log AC50 (M) |
| CCOC(=O)C1(Cc2ccc(Cl)cc2)CCN(C(=O)c2cc(C)oc2C)CC1 [NCGC00426139-02] | – | 15.9 | -5.0986 Log AC50 (M) | 8.94 | -4.8986 Log AC50 (M) and -4.7986 Log AC50 (M) |
| Cc1ccc(CN2CCN(c3cnc4c(O)ccc(C(=O)O)c4c3)CC2)cc1 [NCGC00249379-01] | – | 15.9 | -4.7986 Log AC50 (M) | 17.8 | -4.8486 Log AC50 (M) and -4.7486 Log AC50 (M) |
| COC(=O)c1ccc(O)c2ncc(N3CC[C@@H](N)C3)cc12 [NCGC00241044-01] | – | 11.3 | -4.8986 Log AC50 (M) and -5.0486 Log AC50 (M) | 7.1 | -5.1986 Log AC50 (M) and -5.0986 Log AC50 (M) |
| O=C(O)c1ccnc(-n2ncc(C(CC3CC3)OCCN3CCCCC3)c2-c2cccc(-c3ccccc3)c2)c1 (stereo not drawn) [NCGC00487050-01] | – | 17.8 | -4.7986 Log AC50 (M) and -4.8486 Log AC50 (M) | 15.9 | -4.7986 Log AC50 (M) and -4.7486 Log AC50 (M) |
| O=C(O)c1ccc(O)c2ncc(N3CCCNCC3)cc12 [NCGC00241047-01] | – | 15.9 | -4.8986 Log AC50 (M) and -4.8486 Log AC50 (M) | 15.9 | -4.7986 Log AC50 (M) |
| O=C(O)c1ccnc2cc(-c3nc4ccccc4n3CCN3CCCCC3)sc12 [NCGC00485470-01] | – | 7.1 | -5.2986 Log AC50 (M) and -5.1986 Log AC50 (M) | 6.33 | -5.2486 Log AC50 (M) |
| CC(C)c1c(-c2cnn(C(C)(C)C)c2)[nH]c2c(C#N)cnn2c1=O [NCGC00488278-03] | – | – | -4.7486 Log AC50 (M) | – | -4.8986 Log AC50 (M) |
| O=C(Nc1ccccn1)c1ccc(-c2cc(O)c3ncccc3c2)cc1 [NCGC00247739-01] | – | 8.94 | -4.9986 Log AC50 (M) and -4.8986 Log AC50 (M) | 7.97 | -4.7986 Log AC50 (M) |
| Cc1cccc(CN2CCCn3nc(C)c(-c4ccccc4Oc4ccccc4)c32)n1 [NCGC00499720-01] | – | 15.9 | -4.7486 Log AC50 (M) | 20 | -4.7986 Log AC50 (M) |
| Oc1ccc(Nc2ccccc2F)c2cccnc12 [NCGC00184886-01] | – | 4.48 | -5.6486 Log AC50 (M) and -5.5486 Log AC50 (M) | 3.56 | -5.5986 Log AC50 (M) |
| O=C(/C=C/c1cn(CC(O)CN2CCCCCC2)c2ccccc12)c1ccc(Br)cc1 (stereo not drawn) [NCGC00114921-03] | – | 4.48 | -5.2486 Log AC50 (M) and -5.0986 Log AC50 (M) | 4.48 | -5.0486 Log AC50 (M) and -5.1986 Log AC50 (M) |
| COc1ccc(-c2c(-c3cc(N)ccn3)ncn2C)cc1 [NCGC00421914-01] | – | 12.6 | -4.7986 Log AC50 (M) and -4.9486 Log AC50 (M) | 14.2 | -4.9986 Log AC50 (M) |
| CCCN1C(CC(C)C)=N[S+](=O)([O-])c2cc(NC(=O)c3cccs3)ccc21 [NCGC00473217-02] | – | – | -7.0986 Log AC50 (M) and -6.8486 Log AC50 (M) and -6.8986 Log AC50 (M) | – | -6.3986 Log AC50 (M) and -6.0986 Log AC50 (M) and -6.3486 Log AC50 (M) |
| O=C(NCCN1CCOCC1)c1cccc(-c2cc(O)c3ncccc3c2)c1 [NCGC00244535-01] | – | – | -4.8986 Log AC50 (M) and -5.0986 Log AC50 (M) | 6.33 | -5.1986 Log AC50 (M) and -4.7986 Log AC50 (M) |

| Structure (SMILES) | Individual replicates / Log AC50 (M) ([1]; 72 h; n = 1) | AC50 [1, 3] [µM] | Individual replicates / Log AC50 (M) [2] | AC50 [2] [µM] | Individual replicates / Log AC50 (M) ([1]; 72 h, n = 1) |
| --- | --- | --- | --- | --- | --- |
| O=C(O)c1ccc(N(CCN2CCC(F)(F)CC2)c2ccc(F)cc2)cn1 [NCGC00390011-01] | – | 17.8 | -4.7486 Log AC50 (M) | 20 | – |
| Cc1cc(C)nc(NCc2ccc(O)c3ncccc23)c1 [NCGC00241026-01] | – | 20 | -4.7986 Log AC50 (M) | 17.8 | -4.8986 Log AC50 (M) |
| COC(=O)c1ccc(O)c2ncc(-c3ccc(C(=O)N4CCN(C)CC4)cc3)cc12 [NCGC00189505-01] | – | 6.33 | -5.2486 Log AC50 (M) and -5.0486 Log AC50 (M) | 5.03 | -4.8986 Log AC50 (M) and -5.1486 Log AC50 (M) |
| O=C(NCCCCCN1CCOCC1)c1cccc(-c2cc(O)c3ncccc3c2)c1 [NCGC00249387-01] | – | – | -4.9986 Log AC50 (M) | 7.1 | -4.6986 Log AC50 (M) and -5.0486 Log AC50 (M) and -4.7986 Log AC50 (M) |
| Cc1ccc(C(CCN2CCCCC2)c2cc3cccc(C(N)=O)c3[nH]2)cc1 (stereo not drawn) [NCGC00389183-01] | – | 5.03 | -5.2486 Log AC50 (M) | 5.03 | -5.3486 Log AC50 (M) and -5.0986 Log AC50 (M) |
| COC(=O)c1ccnc2cc(C(OCCN3CCCCC3)c3ccccc3Cl)[nH]c12 (stereo not drawn) [NCGC00420857-01] | – | 5.03 | -5.2986 Log AC50 (M) and -5.1986 Log AC50 (M) | 4.48 | -5.0986 Log AC50 (M) |
| CC(=O)Nc1cccc(-c2csc(Nc3cc(C)ccn3)n2)c1 [MLS000550799-02] | – | – | -4.7486 Log AC50 (M) and -5.0986 Log AC50 (M) and -4.9486 Log AC50 (M) | – | -4.7486 Log AC50 (M) |
| O=C(O)c1ccnc(-n2ncc(C(OCCN3CCCCC3)c3ccc(Cl)cc3)c2-c2ccccc2)c1 (stereo not drawn) [NCGC00487049-01] | – | 15.9 | -4.7986 Log AC50 (M) and -4.8486 Log AC50 (M) | 15.9 | -4.7486 Log AC50 (M) |
| CN(C)CCCCNC(=O)c1cccc(-c2cc(O)c3ncccc3c2)c1 [NCGC00244528-01] | – | 15.9 | -4.8986 Log AC50 (M) and -4.8486 Log AC50 (M) | 17.8 | -4.7486 Log AC50 (M) |
| Cc1cccc(CN2CCCn3nc(C)c(-c4ccccc4OCc4ccccc4)c32)n1 [NCGC00499716-01] | – | 12.6 | -4.8986 Log AC50 (M) and -4.7486 Log AC50 (M) | 15.9 | -4.8486 Log AC50 (M) |
| COC(=O)c1ccc(O)c2ncc(N3CCOCC3)cc12 [NCGC00262492-01] | – | 5.64 | -5.3486 Log AC50 (M) and -5.3986 Log AC50 (M) | 5.64 | -5.2986 Log AC50 (M) |
| O=C(NCCC12CCCN1CCC2)c1cccc(-c2cc(O)c3ncccc3c2)c1 [NCGC00249386-01] | – | 17.8 | -4.7986 Log AC50 (M) | 17.8 | -4.6986 Log AC50 (M) |
| N[C@H]1CCN(c2cnc3c(O)ccc(C(=O)O)c3c2)C1 [NCGC00241041-01] | – | 15.9 | – | 14.2 | – |
| CC(C)OC(=O)c1ccnc2cc(C(OCCN3CCCCC3)c3ccccc3Cl)sc12 (stereo not drawn) [NCGC00481510-01] | – | 8.94 | -5.1986 Log AC50 (M) | 7.1 | -5.0986 Log AC50 (M) |
| O=C(O)c1ccc(O)c2ncc(N3CCOCC3)cc12 [NCGC00241036-02] | – | 10 | – | 14.2 | – |
| O=C(O)c1ccc(O)c2ncc(N3CCCN(C4CCCC4)CC3)cc12 [NCGC00241765-01] | – | 20 | -4.7486 Log AC50 (M) | 17.8 | -4.7486 Log AC50 (M) and -4.6986 Log AC50 (M) |
| CN(C)C(=S)SN(C)C(=O)Nc1ccccc1 [NCGC00386444-01] | – | 2.25 | -5.7986 Log AC50 (M) | 1.78 | -5.7986 Log AC50 (M) |
| O=C(O)c1ccc(O)c2ncc(N3CCCN(CCCc4ccncc4)CC3)cc12 [NCGC00247752-01] | – | 17.8 | -4.7486 Log AC50 (M) | 12.6 | -4.7986 Log AC50 (M) and -4.7486 Log AC50 (M) |
